# What was measured:
# [1] = system: Mycobacterium tuberculosis; test: Antimicrobial activity against Mycobacterium tuberculosis H37Rv after 11 days using [14]C labeled palmitic acid as substrate by radiometric Bactec 460TB method; type: functional; conditions: 264 h
# [2] = Selectivity index, ratio of CC50 african green monkey Vero cells to MIC for Mycobacterium tuberculosis H37Rv; type: functional
# [3] = system: Mycobacterium tuberculosis; test: Antimicrobial activity against Mycobacterium tuberculosis H37Rv after 4 weeks by agar dilution assay; type: functional; conditions: 672 h
# [4] = Cytotoxicity against african green monkey Vero cells after 72 hrs by resazurin assay; type: cell-based; conditions: chlorocebus sabaeus
# [5] = system: Mycobacterium tuberculosis; test: Ratio of NTZ MIC to compound MIC for Mycobacterium tuberculosis H37Rv; type: functional
# [6] = system: Mycobacterium tuberculosis; test: Antimicrobial activity against non-replicating Mycobacterium tuberculosis; type: functional
# [7] = system: Mycobacterium tuberculosis; test: Antimicrobial activity against replicating Mycobacterium tuberculosis; type: functional
smiles,measurement,setting,value
COc1ccc(-c2csc(N/N=C3/CCCc4c(OC)cccc43)n2)cc1OC,MIC,[1],6.25 µM
same,Ratio,[2],>=39
same,MIC,[3],6.25 µg/mL
same,CC50 at 72 h,[4],> 244 µM
same,fold change (FC),[5],3
COc1cccc2c1CCC/C2=N/Nc1nc(-c2ccc(Cl)cc2Cl)cs1,MIC,[3],12.5 µg/mL
same,fold change (FC),[5],2
COc1cccc2c1CCC/C2=N/Nc1nc(-c2ccc(F)cc2)cs1,MIC,[1],6.25 µM
same,Ratio,[2],>=48
same,MIC,[3],6.25 µg/mL
same,CC50 at 72 h,[4],> 300 µM
same,fold change (FC),[5],3
COc1cccc2c1CCC/C2=N/Nc1nc(-c2cccc([N+](=O)[O-])c2)cs1,MIC,[3],12.5 µg/mL
same,fold change (FC),[5],2
COc1ccc(-c2csc(N/N=C/c3cn(Cc4ccc(Cl)cc4Cl)c4ccccc34)n2)cc1OC,MIC,[3],> 12.5 µg/mL
Clc1ccc(Cn2cc(/C=N/Nc3nc(-c4ccc(Cl)cc4Cl)cs3)c3ccccc32)c(Cl)c1,MIC,[3],12.5 µg/mL
Fc1ccc(-c2csc(N/N=C/c3cn(Cc4ccc(Cl)cc4Cl)c4ccccc34)n2)cc1,MIC,[3],> 12.5 µg/mL
Fc1ccc(Nc2nc(-c3ccc(F)cc3)cs2)cc1,MIC,[1],12.5 µM
same,MIC,[3],1.8 µg/mL
same,fold change (FC),[5],9
COc1ccc(OC)c(Nc2nc(-c3ccc(F)cc3)cs2)c1,MIC,[3],> 12.5 µg/mL
COc1ccc(OC)c(Nc2nc(-c3cccc([N+](=O)[O-])c3)cs2)c1,MIC,[3],> 12.5 µg/mL
COc1ccc(-c2csc(Nc3cc(OC)ccc3OC)n2)cc1,MIC,[3],> 12.5 µg/mL
COc1ccc(-c2csc(Nc3ccccc3C(F)(F)F)n2)cc1OC,MIC,[3],> 12.5 µg/mL
Fc1ccc(-c2csc(Nc3ccccc3C(F)(F)F)n2)cc1,MIC,[3],> 12.5 µg/mL
O=[N+]([O-])c1cccc(-c2csc(Nc3ccccc3C(F)(F)F)n2)c1,MIC,[3],> 12.5 µg/mL
COc1ccc(-c2csc(Nc3ccccc3C(F)(F)F)n2)cc1,MIC,[3],> 12.5 µg/mL
NNC(=O)c1ccncc1 [ISONIAZID],MIC,[3],< 1 µg/mL
CC(=O)Oc1ccccc1C(=O)Nc1ncc([N+](=O)[O-])s1 [NITAZOXANIDE],MIC,[6],52.1 µM
same,MIC,[7],52.1 µM
CN[C@@H]1[C@H](O[C@H]2[C@H](O[C@H]3[C@H](O)[C@@H](O)[C@H](N=C(N)N)[C@@H](O)[C@@H]3N=C(N)N)O[C@@H](C)[C@]2(O)C=O)O[C@@H](CO)[C@H](O)[C@H]1O [STREPTOMYCIN],MIC,[1],6 µM
O=C(Nc1ncc([N+](=O)[O-])s1)c1ccccc1O [TIZOXANIDE],MIC,[6],60.4 µM
same,MIC,[7],60.4 µM
